Patent US20060063187A1, “Modulation of XBP-1 activity for treatment of metabolic disorders” (priority 2004, published 2006)

Tests used:
Fao liver cells = assay: ER stress and insulin receptor signaling in Fao liver cells (immunoprecipitation / immunoblotting); format: cell-based, rat; conditions: for serine (Ser307) phosphorylation of IRS-1: Fao cells treated with ER stress inducer (tunicamycin 5 μg/ml 3 h; thapsigargin 300 nM)
Experimental: (§1) FIG. 2 depicts that the induction of ER stress impairs insulin action through JNK mediated phosphorylation of IRS-1. (A) ER stress was induced in Fao liver cells by a 3-hour treatment with 5 μg/ml tunicamycin (Tun). Cells were subsequently stimulated with insulin (Ins). IRS-1 tyrosine and serine (Ser307) phosphorylation, Akt phosphorylation (Ser473), insulin receptor (IR) tyrosine phosphorylation, and their total protein levels were examined using either immunoprecipitation (IP) followed by immunoblotting (IB) or direct immunoblotting. (B) Quantitation of IRS-1 (tyrosine and Ser307), Akt (Ser473), and IR (tyrosine) phosphorylation under the experimental conditions described in (A) with normalization to protein levels for each molecule. (C) Inhibition of ER stress-induced (300 nM thapsigargin for 4 hours) Ser307 phosphorylation of IRS-1 by JNK-1 inhibitor, SP600125 (JNKi, 25 μM). (D) Quantitation of IRS-1 Ser307 phosphorylation under conditions described in (C). (E) Reversal of ER stress-induced inhibition of insulin-stimulated tyrosine phosphorylation (pY) of IRS-1 by a JNK inhibitor. (F) Quantitation of insulin-induced IRS-1 tyrosine phosphorylation levels described in (E). (G) JNK activity, Ser307 phosphorylation of IRS-1, and total IRS-1 levels at indicated times following tunicamycin treatment (Tun, 10 μg/ml for I hour) in IRE-1α^+/+ and IRE-1α^−/− fibroblasts. (H) Insulin-stimulated IRS-1 tyrosine phosphorylation and total IRS-1 levels following tunicamycin treatment (Tun, 10 μg/ml for 1 hour) in IRE-1α^+/+ and IRE-1α^−/− fibroblasts. […] All graphs show mean ±SEM from at least 2 independent experiments and statistical significance from the controls is indicated by * with p<0.005.
FIG. 8 depicts inhibition of insulin receptor signaling by thapsigargin-induced ER stress and the role of Ca^+2 levels in IRS-1 serine phosphorylation. (A) ER stress was induced in Fao cells by 1 hour treatment with 300 nM thapsigargin (Thap), and cells were subsequently stimulated with insulin (Ins). IRS-1 tyrosine phosphorylation (pY) and serine phosphorylation (pSer307), insulin receptor (IR) tyrosine phosphorylation, and total protein levels were examined using either immunoprecipitation (UP) followed by immunoblotting (IB) or direct immunobloting. (B) Fao cells were treated with sulindac sulfide (SS: 0, 7.5, 30, and 60 μM) for 45 minutes with or without an additional hour of exposure to 300 nM thapsigargin (Thap). IRS-1 serine phosphorylation and total IRS-1 protein levels were examined as described above.
Cells: FaO cells were cultured with RPMI 1640 (Gibco) containing 10% fetal bovine serum (FBS). At 70-80% confluency, cells were serum depleted for 12 hours before starting the experiments. Reagents including tunicamycin, thapsigargin, and JNK inhibitors were gently added to the culture dishes in the incubator to prevent any environmental stress. JNK inhibitors were added 1 hour before tunicamycine/thapsigargin treatment. The XBP-1^−/− MEF cells, IRE-1α^−/− MEF cells (provided by Dr. David Ron (New York University School of Medicine) and their wild type (WT) controls were cultured in Dulbecco's Modified Eagle Medium (DMEM) (Gibco) containing 10% FBS. Experiments in MEF cells were carried out similar to those in FaO cells except after 6 hours of serum depletion.
(§2) Protein Extracts From Cells: At the end of each treatment, cells were immediately frozen in liquid nitrogen and kept at −80° C. Protein extracts were prepared with a lysis buffer, containing 25 mM Tris-HCl (pH7.4), 2 mM Na3VO4, 10 mM NaF, 10 mM Na4P2O7, 1 mM EGTA, 1 mM EDTA, 1% NP40, 5 μg/ml leupeptin, 5 μg/ml aprotinin, 10 nM okadaic acid, and 1 mM PMSF. Immunoprecipitations and immunoblotting experiments were performed with 750 pg and 75 ug total protein, respectively.

[1] = system: mouse embryonic fibroblasts (MEF) without exogenous XBP-1s expression; assay: ER stress response in MEF-tet-off fibroblasts without exogenous XBP-1s expression; format: cell-based; conditions: tunicamycin 2 μg/ml, fibroblasts without exogenous XBP-1s (+Dox)
Text: FIG. 3 depicts that alteration of the ER stress response by manipulation of XBP-1 levels leads to alterations in insulin receptor signaling. ER stress responses in XBP-1s overexpressing cells, XBP-1^−/− cells, and their controls. (A) Induction of XBP-1s expression upon removal of doxycycline in mouse embryonic fibroblasts (MEF). (B) Southern blot analysis of XBP-1^−/− MEF cells and their WT controls for the wild type (9.4 kb) and targeted (6.5 kb) alleles. (C) PERK phosphorylation (p-PERK) and JNK activity in the XBP-1s overexpressing cells and their control cells (−Dox and +Dox, respectively) upon tunicamycin treatment (Tun, 2 μg/ml). (D) PERK phosphorylation and JNK activity upon low dose tunicamycin treatment (Tun, 0.5 μg/ml) in XBP-1^−/−-MEF cells and their WT controls. (E) IRS-1 Ser307 phosphorylation upon tunicamycin treatment (Tun, 2 μg/ml) in the XBP-1s overexpressingcells and the control cells (−Dox and +Dox, respectively), detected using immunoprecipitation (IP) of IRS-1 followed by immunoblotting (IB) with an IRS-1 phosphoserine 307-specific antibody. […] The ratio of IRS-1 tyrosine phosphorylation to total IRS-1 level was summarized from independent experiments and was presented in the graph. (G) IRS-1 Ser307 phosphorylation upon tunicamycin treatment (Tun, 0.5 μg/ml) in XBP-1^−/− cells and WT controls was detected as described in panel C. […] The ratio of IRS-1 tyrosine phosphorylation to total IRS-1 level was summarized from independent experiments and presented in the graph. All graphs show mean±SEM from at least 2 independent experiments and statistically significance from the controls is indicated by * with p<0.005.
Overexpression of XBPIs in MEFs: MEF-tet-off cells (Clontech) were cultured in DMEM with 100 μg/ml G418 and 1 μg/ml doxycycline. The MEF-tet-off cells express exogenous tTA (tetracycline-controlled transactivator) protein, which binds to TRE (tetracycline response element) and activates transcription only in the absence of tetracycline or doxycycline. The cDNA of the spliced form of XBP-1 was ligated into pTRE2hyg2 plasmid (Clontech). The MEF-tet-off cells were transfected with the TRE2hyg2-XBP-1s plasmid, followed by selection in the presence of […] hygromycine B. Individual clones of stable transfectants were isolated and doxycycline-dependent XBP-1s expression was confirmed by immunoblotting.
as §2, with “Immunoprecipitations and immunoblotting experiments were performed with 750 pg and 75 ug total protein, respectively.” left out

IRE-1α−/− fibroblasts = assay: ER stress-induced JNK activation and IRS-1 phosphorylation in IRE-1α-deficient fibroblasts; format: cell-based, mouse; conditions: tunicamycin 10 μg/ml for 1 hour
Experimental: FIG. 2 depicts that the induction of ER stress impairs insulin action through JNK mediated phosphorylation of IRS-1. (A) ER stress was induced in Fao liver cells by a 3-hour treatment with 5 μg/ml tunicamycin (Tun). Cells were subsequently stimulated with insulin (Ins). IRS-1 tyrosine and serine (Ser307) phosphorylation, Akt phosphorylation (Ser473), insulin receptor (IR) tyrosine phosphorylation, and their total protein levels were examined using either immunoprecipitation (IP) followed by immunoblotting (IB) or direct immunoblotting. (B) Quantitation of IRS-1 (tyrosine and Ser307), Akt (Ser473), and IR (tyrosine) phosphorylation under the experimental conditions described in (A) with normalization to protein levels for each molecule. (C) Inhibition of ER stress-induced (300 nM thapsigargin for 4 hours) Ser307 phosphorylation of IRS-1 by JNK-1 inhibitor, SP600125 (JNKi, 25 μM). (D) Quantitation of IRS-1 Ser307 phosphorylation under conditions described in (C). (E) Reversal of ER stress-induced inhibition of insulin-stimulated tyrosine phosphorylation (pY) of IRS-1 by a JNK inhibitor. (F) Quantitation of insulin-induced IRS-1 tyrosine phosphorylation levels described in (E). (G) JNK activity, Ser307 phosphorylation of IRS-1, and total IRS-1 levels at indicated times following tunicamycin treatment (Tun, 10 μg/ml for I hour) in IRE-1α^+/+ and IRE-1α^−/− fibroblasts. […]

[2] = system: IRE-1α+/+ (WT) fibroblasts; assay: ER stress-induced JNK activation and IRS-1 phosphorylation in wild type fibroblasts; format: cell-based, mouse; conditions: tunicamycin 10 μg/ml for 1 hour
Experimental: as §1
Cells: FaO cells were cultured with RPMI 1640 (Gibco) containing 10% fetal bovine serum (FBS). At 70-80% confluency, cells were serum depleted for 12 hours before starting the experiments. Reagents including tunicamycin, thapsigargin, and JNK inhibitors were gently added to the culture dishes in the incubator to prevent any environmental stress. […]

WT MEF cells = assay: ER stress response to low dose tunicamycin in WT MEF cells; format: cell-based, mouse; conditions: low dose of tunicamycin 0.5 μg/ml
Text: (§3) FIG. 3 depicts that alteration of the ER stress response by manipulation of XBP-1 levels leads to alterations in insulin receptor signaling. ER stress responses in XBP-1s overexpressing cells, XBP-1^−/− cells, and their controls. (A) Induction of XBP-1s expression upon removal of doxycycline in mouse embryonic fibroblasts (MEF). (B) Southern blot analysis of XBP-1^−/− MEF cells and their WT controls for the wild type (9.4 kb) and targeted (6.5 kb) alleles. (C) PERK phosphorylation (p-PERK) and JNK activity in the XBP-1s overexpressing cells and their control cells (−Dox and +Dox, respectively) upon tunicamycin treatment (Tun, 2 μg/ml). (D) PERK phosphorylation and JNK activity upon low dose tunicamycin treatment (Tun, 0.5 μg/ml) in XBP-1^−/−-MEF cells and their WT controls. (E) IRS-1 Ser307 phosphorylation upon tunicamycin treatment (Tun, 2 μg/ml) in the XBP-1s overexpressingcells and the control cells (−Dox and +Dox, respectively), detected using immunoprecipitation (IP) of IRS-1 followed by immunoblotting (IB) with an IRS-1 phosphoserine 307-specific antibody. […] The ratio of IRS-1 tyrosine phosphorylation to total IRS-1 level was summarized from independent experiments and was presented in the graph. (G) IRS-1 Ser307 phosphorylation upon tunicamycin treatment (Tun, 0.5 μg/ml) in XBP-1^−/− cells and WT controls was detected as described in panel C. […]

XBP-1−/− MEF cells = assay: ER stress response to low dose tunicamycin in XBP-1−/− MEF cells; format: cell-based, mouse
Text: as §3

Molecule: CSc1ccc(/C=C2/C(C)=C(CC(=O)O)c3cc(F)ccc32)cc1 [sulindac sulfide]
- thapsigargin-induced IRS-1 serine phosphorylation (Fao liver cells; sulindac sulfide 45 minutes, then additional hour of 300 nM thapsigargin): did not interfere
- Ser307 phosphorylation of IRS-1 (Fao liver cells; sulindac sulfide alone (0, 7.5, 30, 60 μM, 45 minutes)): no effect

Molecule: C/C=C(/C)C(=O)O[C@H]1C(C)=C2[C@H]([C@@H]1OC(=O)CCCCCCC)[C@@](C)(OC(C)=O)C[C@H](OC(=O)CCC)[C@@]1(O)[C@H]2OC(=O)[C@@]1(C)O [thapsigargin]
- serine (Ser307) phosphorylation of IRS-1 (Fao liver cells): increased
- insulin receptor signaling (Fao liver cells; Fao cells, thapsigargin 300 nM 1 h, then insulin): suppressed

Molecule: tunicamycin
- JNK activation [1]: rapid and robust activation
- PERK phosphorylation [1]: strong
- peak of PERK phosphorylation [1]: 3 to 4 h
- start of PERK phosphorylation [1]: 30 min
- insulin-stimulated tyrosine phosphorylation of IRS-1 (IRE-1α−/− fibroblasts; IRE-1α−/− cells, then insulin): no such effect was detected
- phosphorylation of IRS-1 at Ser307 (IRE-1α−/− fibroblasts; IRE-1α−/− fibroblasts): not
- insulin-stimulated tyrosine phosphorylation of IRS-1 (Fao liver cells; Fao cells pretreated with ER stress inducer (tunicamycin 5 μg/ml 3 h; thapsigargin 300 nM 1 h), then insulin): significantly decreased
- serine (Ser307) phosphorylation of IRS-1 (Fao liver cells): significant increase
- insulin-induced Akt phosphorylation (Ser473) (Fao liver cells; Fao cells, tunicamycin pretreatment 5 μg/ml 3 h, then insulin): suppressed
- insulin-stimulated tyrosine phosphorylation of IRS-1 ([2]; WT cells, then insulin): inhibited
- JNK activation ([2]; WT fibroblasts): strong activation
- phosphorylation of IRS-1 at Ser307 ([2]; WT fibroblasts): stimulated
- ER stress (PERK phosphorylation, JNK activation) (WT MEF cells): failed to stimulate significant ER stress
- ER stress response (PERK phosphorylation, JNK activation) (XBP-1−/− MEF cells; low dose of tunicamycin 0.5 μg/ml, XBP-1−/− MEFs): strong ER stress response
- IRS-1 serine (Ser307) phosphorylation (XBP-1−/− MEF cells; tunicamycin 0.5 μg/ml, XBP-1−/− MEFs compared with XBP-1+/+ controls): strongly induced
